The values below come from ChEMBL document CHEMBL1137339, “Improved therapeutic efficacy of doxorubicin through conjugation with a novel peptide drug delivery technology (Vectocell)” (J Med Chem, 2006).

Non-standard residues stand in square brackets, D forms with d. Residues, ends and D or L forms follow the SMILES beside them. ξ: configuration not given here. *: point of attachment. X1 = COc1cccc2c1C(=O)c1c(O)c3c(c(O)c1C2=O)C[C@@](O)(C(=O)COC(=O)CCCN1C(=O)CC(*)C1=O)C[C@@H]3O[C@H]1C[C@H](N)[C@H](O)[C@H](C)O1; X4 = COc1cccc2c1C(=O)c1c(O)c3c(c(O)c1C2=O)C[C@@](O)(C(=O)CO)C[C@@H]3O[C@H]1C[C@H](NC(=O)CCCN2C(=O)CC(*)C2=O)[C@H](O)[C@H](C)O1; ξC = NC(CS)C(=O)O

Assay [1] relates to HCT-116. The experiment in a line: Cytotoxicity against doxorubicin-sensitive HCT116 cell line by WST1 assay. The format is functional, cell-based. The following applies: Homo sapiens. (In general: Tetrazolium assays rely on reduction of a dye to a coloured formazan, in cell work by metabolically active cells.)
Assay [2] concerns MES-SA/Dx5. The experiment in a line: Cytotoxicity against doxorubicin-resistant MES-SA/dx5 cell line in presence of verapamil by WST1 assay. Format: functional, cell-based. The following applies: Homo sapiens.
Assay [3] has as its system HCT-15. The experiment in a line: Cytotoxicity against doxorubicin-resistant HCT15 cell line in presence of verapamil by WST1 assay. Format: functional, cell-based. The following applies: Homo sapiens.
The subject of assay [4] is HCT-15. The experiment in a line: Cytotoxicity against HCT15 cell line by WST1 assay. The conditions noted are these: Homo sapiens. The format is functional, cell-based.
Assay [5] concerns MCF7. The experiment in a line: Cytotoxicity against doxorubicin-sensitive MCF7/6 cell line by WST1 assay. Format: functional, cell-based. The conditions noted are these: Homo sapiens.
The test system of assay [6] is MES-SA/Dx5. Description: Cytotoxicity against MES-SA/dx5 cell line by WST1 assay. Format: functional, cell-based. The following applies: Homo sapiens.
Assay [7] concerns HCT-116. The experiment in a line: Cytotoxicity against doxorubicin-sensitive HCT116 cell line in presence of verapamil by WST1 assay. The format is functional, cell-based. The conditions noted are these: Homo sapiens.
For assay [8], the system named is NCI/ADR-RES. The experiment in a line: Cytotoxicity against doxorubicin-resistant MCF7/Adr cell line in presence of verapamil by WST1 assay. The conditions noted are these: Homo sapiens. Format: functional, cell-based.
In assay [9] the test system is NCI/ADR-RES. The experiment in a line: Cytotoxicity against doxorubicin-resistant MCF7/Adr cell line by WST1 assay. The conditions noted are these: Homo sapiens. The format is functional, cell-based.
Assay [10] concerns MDA-MB-231. The experiment in a line: Cytotoxicity against MDA-MB-231 cell line xenografted in NMRI nu/nu mouse at 6 umol/kg relative to control. The format is functional, Homo sapiens.
Assay [11] relates to MDA-MB-231. Description: Cytotoxicity against MDA-MB-231 cell line xenografted in NMRI nu/nu mouse at 8 umol/kg relative to control. Format: functional, Homo sapiens.
The subject of assay [12] is HCT-116. Description: Cytotoxicity against HCT116 cell line xenografted in NMRI nu/nu mouse at 15 umol/kg relative to control. Format: functional, Homo sapiens.
The test system of assay [13] is MDA-MB-231. Description: Cytotoxicity against MDA-MB-231 cell line xenografted in NMRI nu/nu mouse at 10 umol/kg relative to control. The format is functional, Homo sapiens.

The IC50 is the concentration that gives 50% inhibition. With `COc1cccc2c1C(=O)c1c(O)c3c(c(O)c1C2=O)C[C@@](O)(C(=O)COC(=O)CCCN1C(=O)CC(SC[C@H](N)C(=O)N[C@H](C(=O)N[C@@H](CCCCN)C(=O)N[C@@H](CCCN=C(N)N)C(=O)NCC(=O)N[C@@H](CC(C)C)C(=O)N[C@@H](CCCCN)C(=O)N[C@@H](CC(C)C)C(=O)N[C@@H](CCCN=C(N)N)C(=O)N[C@@H](Cc2c[nH]cn2)C(=O)N[C@H](C(=O)N[C@@H](CCCN=C(N)N)C(=O)N2CCC[C@H]2C(=O)N[C@@H](CCCN=C(N)N)C(=O)N[C@H](C(=O)N[C@H](C(=O)N[C@@H](CCCN=C(N)N)C(=O)N[C@@H](CCSC)C(=O)N[C@@H](CC(=O)O)C(=O)N[C@H](C(=O)O)C(C)C)[C@@H](C)O)C(C)C)C(C)C)C(C)C)C1=O)C[C@@H]3O[C@H]1C[C@H](N)[C@H](O)[C@H](C)O1` (stereo not given in full) (H-C(X1)VKRGLKLRHVRPRVTRMDV-OH), the IC50 in assay [1] is 6 µM; in assay [2], 22 µM; in assay [3], 11 µM; in assay [4], 50 µM; in [5], 29 µM; in [6], 81 µM. Moreover, the IC50 was determined as 4 µM in [7], 52 µM in assay [8] and 133 µM in [9].
Consider `COc1cccc2c1C(=O)c1c(O)c3c(c(O)c1C2=O)C[C@@](O)(C(=O)COC(=O)CCCN1C(=O)CC(SC[C@H](N)C(=O)N[C@H](C(=O)N[C@@H](CCCCN)C(=O)N[C@@H](CCCN=C(N)N)C(=O)NCC(=O)N[C@@H](CC(C)C)C(=O)N[C@@H](CCCCN)C(=O)N[C@@H](CC(C)C)C(=O)N[C@@H](CCCN=C(N)N)C(=O)N[C@@H](Cc2c[nH]cn2)C(=O)N[C@H](C(=O)N[C@@H](CCCN=C(N)N)C(=O)N2CCC[C@H]2C(=O)N[C@@H](CCCN=C(N)N)C(=O)N[C@H](C(=O)N[C@H](C(=O)N[C@@H](CCCN=C(N)N)C(=O)N[C@@H](CCSC)C(=O)N[C@@H](CC(=O)O)C(=O)N[C@H](C(=O)O)C(C)C)[C@@H](C)O)C(C)C)C(C)C)C(C)C)C1=O)C[C@@H]3O[C@H]1C[C@H](N)[C@H](O)[C@H](C)O1.O=C(O)C(F)(F)F` (stereo not given in full) (H-C(X1)VKRGLKLRHVRPRVTRMDV-OH), for which the Activity in [10] came out at 43.4%; in [11], 27.6%; in assay [12] it was 29.5%; in [13], 16.4%.
As for `COc1cccc2c1C(=O)c1c(O)c3c(c(O)c1C2=O)C[C@@](O)(C(=O)CO)C[C@@H]3O[C@H]1C[C@H](NC(=O)CCCN2C(=O)CC(SC[C@H](N)C(=O)N[C@H](C(=O)N[C@@H](CCCCN)C(=O)N[C@@H](CCCN=C(N)N)C(=O)NCC(=O)N[C@@H](CC(C)C)C(=O)N[C@@H](CCCCN)C(=O)N[C@@H](CC(C)C)C(=O)N[C@@H](CCCN=C(N)N)C(=O)N[C@@H](Cc3c[nH]cn3)C(=O)N[C@H](C(=O)N[C@@H](CCCN=C(N)N)C(=O)N3CCC[C@H]3C(=O)N[C@@H](CCCN=C(N)N)C(=O)N[C@H](C(=O)N[C@H](C(=O)N[C@@H](CCCN=C(N)N)C(=O)N[C@@H](CCSC)C(=O)N[C@@H](CC(=O)O)C(=O)N[C@H](C(=O)O)C(C)C)[C@@H](C)O)C(C)C)C(C)C)C(C)C)C2=O)[C@H](O)[C@H](C)O1` (stereo not given in full) (H-C(X4)VKRGLKLRHVRPRVTRMDV-OH), the IC50 in assay [5] was 108 µM; in assay [9] it was 500 µM.
Turning to `COc1cccc2c1C(=O)c1c(O)c3c(c(O)c1C2=O)C[C@@](O)(C(=O)CO)C[C@@H]3O[C@H]1C[C@H](NC(=O)CCCN2C(=O)CC(SC[C@H](N)C(=O)N[C@H](C(=O)N[C@@H](CCCCN)C(=O)N[C@@H](CCCN=C(N)N)C(=O)NCC(=O)N[C@@H](CC(C)C)C(=O)N[C@@H](CCCCN)C(=O)N[C@@H](CC(C)C)C(=O)N[C@@H](CCCN=C(N)N)C(=O)N[C@@H](Cc3c[nH]cn3)C(=O)N[C@H](C(=O)N[C@@H](CCCN=C(N)N)C(=O)N3CCC[C@H]3C(=O)N[C@@H](CCCN=C(N)N)C(=O)N[C@H](C(=O)N[C@H](C(=O)N[C@@H](CCCN=C(N)N)C(=O)N[C@@H](CCSC)C(=O)N[C@@H](CC(=O)O)C(=O)N[C@H](C(=O)O)C(C)C)[C@@H](C)O)C(C)C)C(C)C)C(C)C)C2=O)[C@H](O)[C@H](C)O1.O=C(O)C(F)(F)F` (stereo not given in full) (H-C(X4)VKRGLKLRHVRPRVTRMDV-OH), the Activity in assay [12] is 79.7%.
Turning to `COc1cccc2c1C(=O)c1c(O)c3c(c(O)c1C2=O)C[C@@](O)(C(=O)COC(=O)CCCN1C(=O)CC(SCC(N)C(=O)NCC(=O)N[C@@H](CCCCN)C(=O)N[C@@H](CCCN=C(N)N)C(=O)N[C@@H](CCCCN)C(=O)N[C@@H](CCCCN)C(=O)N[C@@H](CCCCN)C(=O)NCC(=O)N[C@@H](CCCCN)C(=O)N[C@@H](CC(C)C)C(=O)NCC(=O)N[C@@H](CCCCN)C(=O)N[C@@H](CCCCN)C(=O)N[C@@H](CCCN=C(N)N)C(=O)N2CCC[C@H]2C(=O)N[C@@H](CCCN=C(N)N)C(=O)N[C@@H](CO)C(=O)N[C@@H](CCCN=C(N)N)C(=O)N[C@@H](CS)C(=O)O)C1=O)C[C@@H]3O[C@H]1C[C@H](N)[C@H](O)[C@H](C)O1.O=C(O)C(F)(F)F` (stereo not given in full) (H-[ξC](X1)GKRKKKGKLGKKRPRSRC-OH), the IC50 in assay [1] was 5 µM; in assay [5], 10 µM; in assay [9], more than 1000 µM. This compound had an Activity in assay [12] of 34.1%.
